Data published in publication PMC6264278, “Corydaline Inhibits Multiple Cytochrome P450 and UDP-Glucuronosyltransferase Enzyme Activities in Human Liver Microsomes” (Molecules, 2011).
Like-named read-outs stand apart in the source and are kept apart here.

Experiments:
[1] = biological target: T1, CYP2D6 (Homo sapiens, UniProt P10635); assay: CYP2D6 bufuralol 1'-hydroxylation inhibition in pooled human liver microsomes; assay type: in vitro ADME; details: for inhibition mode, CYP2D6 bufuralol 1'-hydroxylation: Lineweaver, Dixon and secondary reciprocal plots; for IC50: 5.0 μM bufuralol, mean ± SD, n = 3
T1 construct: using pooled human liver microsomes; tissue BD Gentest Co. H161; host or cells: pooled human liver microsomes
Protocol: (§1) Phenacetin O-deethylase, coumarin 7-hydroxylase, amodiaquine N-deethylase, diclofenac 4-hydroxylase, S-mephenytoin 4-hydroxylase, bufuralol hydroxylase, and midazolam 1’-hydroxylase activities were determined as probe activities for CYP1A2, CYP2A6, CYP2C8, CYP2C9, CYP2C19, CYP2D6, and CYP3A4, respectively, using cocktail incubation and liquid chromatography-tandem mass spectrometry (LC/MS/MS). The incubation mixtures were prepared in a total volume of 200 μL, as follows: pooled human liver microsomes (0.25 mg/mL), 1.3 mM NADPH, 3.3 mM MgCl2, 50 mM potassium phosphate buffer (pH 7.4), and a cocktail of probe substrates and various concentrations of corydaline (1−200 μM). The substrates were used at concentrations approximately equal to their respective Km values: 50 μM phenacetin, 2.5 μM coumarin, 2.5 μM amodiaquine, 10 μM diclofenac, 100 μM S-mephenytoin, 5 μM bufuralol, and 2.5 μM midazolam. After a 3-min pre-incubation period at 37 °C, the reactions were initiated by addition of an NADP generating system and incubated for 20 min at 37 °C in a shaking water bath. After incubation, the reaction was stopped by placement of the tubes on ice and addition of 100 μL of ice-cold methanol containing internal standards (^13C2,^15N-acetaminophen for acetaminophen and N-desethylamodiaquine, d5-7-hydroxycoumarin for 7-hydroxycoumarin, ^13C6-4-hydroxydiclofenac for 4-hydroxydiclofenac, d3-4-hydroxy-mephenytoin for 4-hydroxymephenytoin and hydroxymidazolam, d9-1-hydroxybufuralol for 1-hydroxybufuralol). The incubation mixtures were then centrifuged at 13,000 × g for 5 min. All incubations were performed in triplicate and the mean values were used. […] The reaction was started by addition of a cocktail of CYP probe substrates.
All 7 metabolites produced from the cocktail of CYP isoform-specific substrates were simultaneously determined by LC/MS/MS [25]. The system consisted of a tandem quadrupole mass spectrometer (TSQ Quantum Access, ThermoFisher Scientific, San Jose, CA, USA) coupled with a Nanospace SI-2 LC system. Separation was performed on an Atlantis dC18 column (5 μm, 2.1 mm i.d. ×100 mm, Waters, Milford, MA, USA) using the gradient elution of a mixture of 5% methanol in 0.1% formic acid (mobile phase A) and 95% methanol in 0.1% formic acid (mobile phase B) at a flow rate of 0.25 mL/min: 10% mobile phase B for 1 min, 10% to 95% mobile phase B for 1 min, 95% mobile phase B for 5 min. The column and autosampler temperatures were 50 and 6 °C, respectively. After 1.5 min, the LC eluent was diverted from waste to the mass spectrometer fitted with the electrospray ionization (ESI) source and operated in positive ion mode. […] Quantification was performed by selected reaction monitoring (SRM) of the [M+H]^+ ion and the related product ion for each metabolite. […]
Reactions were initiated by addition of NADPH at 37 °C and stopped after 15 min by placement of the incubation tubes on ice and addition of ice-cold methanol (100 μL) containing an internal standard (2.0 μg/mL ^13C6-4-hydroxydiclofenac for diclofenac, 0.5 μg/mL d3-4-hydroxymephenytoin for mephenytoin, or 0.5 μg/mL d9-1-hydroxy-bufuralol for bufuralol). The incubation mixtures were centrifuged at 13,000 × g for 5 min, and aliquots (5 μL) of the supernatants were analyzed by LC/MS/MS. […] Aliquots (5 μL) were analyzed by LC/MS/MS. […]

[2] = biological target: T2, CYP3A (Homo sapiens, UniProt P08684); assay: CYP3A midazolam 1'-hydroxylation inhibition, cocktail assay in pooled human liver microsomes; assay type: in vitro ADME; details: 2.5 μM midazolam
T2 construct: using pooled human liver microsomes; tissue BD Gentest Co. H161; host or cells: pooled human liver microsomes
Protocol: as §1
All 7 metabolites produced from the cocktail of CYP isoform-specific substrates were simultaneously determined by LC/MS/MS [25]. […] Quantification was performed by selected reaction monitoring (SRM) of the [M+H]^+ ion and the related product ion for each metabolite. […]

T2 sequence (P08684 2-503): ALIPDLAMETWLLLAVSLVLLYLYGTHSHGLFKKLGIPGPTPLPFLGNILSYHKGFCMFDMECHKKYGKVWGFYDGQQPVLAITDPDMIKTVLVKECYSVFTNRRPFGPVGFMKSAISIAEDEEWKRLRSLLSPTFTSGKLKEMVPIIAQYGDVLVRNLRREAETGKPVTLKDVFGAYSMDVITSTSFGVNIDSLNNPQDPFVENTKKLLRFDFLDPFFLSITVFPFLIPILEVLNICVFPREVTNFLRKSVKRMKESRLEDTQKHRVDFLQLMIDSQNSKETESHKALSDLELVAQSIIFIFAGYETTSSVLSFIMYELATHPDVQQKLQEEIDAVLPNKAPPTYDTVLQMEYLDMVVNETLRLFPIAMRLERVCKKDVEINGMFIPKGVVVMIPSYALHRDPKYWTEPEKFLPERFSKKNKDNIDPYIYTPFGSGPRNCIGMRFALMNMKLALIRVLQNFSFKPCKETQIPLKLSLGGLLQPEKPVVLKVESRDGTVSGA
T1 sequence (P10635 whole entry): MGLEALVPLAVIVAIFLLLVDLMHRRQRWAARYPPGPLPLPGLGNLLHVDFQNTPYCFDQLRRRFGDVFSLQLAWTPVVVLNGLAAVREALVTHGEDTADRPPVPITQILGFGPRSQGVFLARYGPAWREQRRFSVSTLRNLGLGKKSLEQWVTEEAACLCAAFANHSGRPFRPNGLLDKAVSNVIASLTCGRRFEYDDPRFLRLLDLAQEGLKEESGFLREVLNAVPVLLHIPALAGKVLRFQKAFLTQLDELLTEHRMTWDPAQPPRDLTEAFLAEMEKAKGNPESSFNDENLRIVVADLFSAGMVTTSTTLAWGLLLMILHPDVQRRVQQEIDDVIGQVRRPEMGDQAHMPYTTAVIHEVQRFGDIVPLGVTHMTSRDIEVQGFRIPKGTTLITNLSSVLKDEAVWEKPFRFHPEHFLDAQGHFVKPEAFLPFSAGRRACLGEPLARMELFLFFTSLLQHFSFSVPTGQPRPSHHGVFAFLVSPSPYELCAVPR

In the case of `COc1cc2c(cc1OC)C1C(C)c3ccc(OC)c(OC)c3CN1CC2` (centres unmarked) [Corydaline, 2,3,9,10-tetramethoxy-13-methyl-5,8,13,13a-tetrahydro-6H-isoquino[3,2-a]isoquinoline], the “inhibition mode, CYP2D6 bufuralol 1'-hydroxylation” value [1] is reported as “competitively”, the “inhibition mode, CYP2D6 bufuralol 1'-hydroxylation” value ([1]; listed as corydaline) is reported as “competitive” and the Ki ([1]; human liver microsomes, 0.5-5 μM bufuralol) is reported as 27.3 ± 0.7 µM. The IC50 ([1]; pooled human liver microsomes (H161), read-out: IC50 no preincubation, CYP2D6 bufuralol 1'-hydroxylation) was 64.5 ± 9.8 µM, the IC50 ([1]; pre-incubated 30 min with NADPH, read-out: IC50 with preincubation, CYP2D6 bufuralol 1'-hydroxylation) was 116 ± 7.6 µM and the “IC50 no preincubation, CYP3A midazolam 1'-hydroxylation” value ([2]; pooled human liver microsomes (H161)) was “negligible inhibition”. It also gave an IC50 ([2]; pooled human liver microsomes (H161), read-out: IC50 no preincubation, CYP3A midazolam 1'-hydroxylation) of over 200 µM and an IC50 ([2]; pre-incubated 30 min with NADPH, mean ± SD, n = 3, read-out: IC50 with preincubation, CYP3A midazolam 1'-hydroxylation) of 67.4 ± 9.8 µM.
